Numbered stars: 1 amine (or outer) side, 2 acyl side, 3 side chain; on linkers, the order of the positions; unused ones are H or OH. Bridge positions count the residues as written; N and C are the ends. I, II: the chains in the order shown. X1 = CC(C)CCC[C@@H](C)[C@H]1CC[C@H]2[C@@H]3CC=C4C[C@@H](OCCN(CCNC(=O)CCOCCOCCOCCOCCNC(=O)CCCN5C(=O)CC([*:1])C5=O)CCNC(=O)CCOCCOCCOCCOCCNC(=O)CCCN5C(=O)CC([*:2])C5=O)CC[C@]4(C)[C@H]3CC[C@]12C

The record followed here is PMC3353973 (PLoS ONE, 2012).

For the data set the following is noted: hamster, in vivo.

“I: Ac-VALDPIDISIVLNKAKSDLEESKEWIRRSNGKLDSIGSGSGC-NH2 / II: Ac-VALDPIDISIVLNKAKSDLEESKEWIRRSNGKLDSIGSGSGC-NH2 (linker I:42-II:42 via X1) [HPIV-P4]”: the “Apparent toxicity in mock-infected animals” value is given as “did not result in any apparent toxicity”.
